Assay results from publication PMC12655172, “Borylated 5-Membered Ring Iminosugars: Synthesis and Biological Evaluation for Glycosidase Inhibition and Anticancer Properties for Application in Boron Neutron Capture Therapy (BNCT)—Part 2” (Pharmaceuticals, 2025).

How the values were obtained:
[1] = test system: T1, α-D-galactosidase (coffee beans); experiment: Glycosidase inhibition (Table 2 panel); type: biochemical
T1 construct: purchased Sigma-Aldrich; host or cells: coffee beans
Description: (§1) The enzymes α-D-glucosidase (yeast), β-D-glucosidases (almond, bovine liver), α-D-galactosidase (coffee beans), β-D-galactosidase (bovine liver), α-D-mannosidase (Jack bean), β-D-mannosidase (snail), α-L-rhamnosidase (P. decumbens), α-L-fucosidase (bovine kidney), trehalase (porcine kidney), β-D-glucuronidases (E. coli, bovine liver), amyloglucosidase (A. niger), para-nitrophenyl glycosides, and various disaccharides were purchased from Sigma-Aldrich Co (St. Louis, MO, USA).
(§2) Brush border membranes were prepared from the rat small intestine according to the method of Kessler et al., and were assayed at pH 6.8 for rat intestinal maltase using maltose. For rat intestinal maltase, porcine kidney trehalase, and A. niger amyloglucosidase activities, the reaction mixture contained maltose ([…]) and the appropriate amount of enzyme, and the incubations were performed for 10–30 min at 37 °C. The reaction was stopped by heating at 100 °C for 3 min. After centrifugation (600 g; 10 min), the resulting reaction mixture was added to the Glucose CII-test Wako (Wako Pure Chemical Ind., Osaka, Japan). The absorbance at 505 nm was measured to determine the amount of the released D-glucose. Other glycosidase activities were determined using an appropriate para-nitrophenyl glycoside as substrate at the optimum pH of each enzyme. The reaction mixture contained the substrate ([…]) and the appropriate amount of enzyme. The reaction was stopped by the addition of Na2CO3 ([…]). The released para-nitrophenol was measured spectrometrically at 400 nm. All reactions were run in […].

[2] = test system: β-D-glucuronidase (bovine liver); experiment: Glycosidase inhibition (Table 2 panel); type: biochemical
Description: as §1, §2

[3] = test system: β-D-mannosidase (snail); experiment: Glycosidase inhibition (Table 2 panel); type: biochemical
Description: as §1, §2

[4] = target: T2, α-D-glucosidase (yeast) (Saccharomyces cerevisiae, UniProt P53341); experiment: Glycosidase inhibition (Table 3 panel); type: biochemical; conditions: 1 mg/mL aqueous solution, run in water; for inhibition at 1000 µg/mL (stock): read-out: Percentage inhibition α-D-Glucosidase Yeast
T2 construct: purchased Sigma-Aldrich
Procedure: All enzymes and para-nitrophenyl substrates were purchased from Sigma. Enzymes were assayed at 27 °C in citric acid (0.1 M)/disodium hydrogen phosphate (0.2 M) buffers at the optimum pH for the enzyme. The incubation mixture consisted of […] of 1 mg/mL aqueous solution of extract and […] of the appropriate 5 μM para-nitrophenyl substrate made up in buffer at the optimum pH for the enzyme. […] Assays were carried out in triplicate, and the values given are means of the three replicates per assay. All reactions were run in water.

[5] = test system: β-D-glucosidase (almond); experiment: Glycosidase inhibition (Table 3 panel); type: biochemical; conditions: 1 mg/mL aqueous solution; run in water
Procedure: (§3) All enzymes and para-nitrophenyl substrates were purchased from Sigma. Enzymes were assayed at 27 °C in citric acid (0.1 M)/disodium hydrogen phosphate (0.2 M) buffers at the optimum pH for the enzyme. The incubation mixture consisted of […] of 1 mg/mL aqueous solution of extract and […] of the appropriate […] para-nitrophenyl substrate made up in buffer at the optimum pH for the enzyme. The reactions were stopped by addition of […] 0.4 M glycine (pH 10.4) during the exponential phase of the reaction, which had been determined at the beginning using uninhibited assays in which water replaced the inhibitor. Final absorbances were read at 405 nm using a Versamax microplate reader (Molecular Devices, Wokingham, UK). Assays were carried out in triplicate, and the values given are means of the three replicates per assay. All reactions were run in water.

[6] = test system: β-D-glucuronidase (bovine liver); experiment: Glycosidase inhibition (Table 3 panel); type: biochemical; conditions: 1 mg/mL aqueous solution; run in water
Procedure: as §3

[7] = Sample appearance on sample preparation in water; type: physicochemical; conditions: 1 mL of water was added to 1 mg solid
[8] = test system: A2780 (ovarian carcinoma); experiment: Cancer screening, MTT growth inhibition; type: cell-based; conditions: for inhibition at 25 µM / GI50: Homo sapiens; for inhibition at 25 µM: A2780, 25 µM of drug, read-out: DOSE SCREEN percentage (%) cell growth inhibition A2780 Ovarian; for GI50: A2780, 72 h, read-out: DOSE RESPONSE GI50 A2780 Ovarian
Procedure: (§4) For Table 4, all test agents were prepared as stock solutions ([…]) in dimethyl sulfoxide (DMSO) and stored at −20 °C. Cell lines used in the study included HT29 (colorectal carcinoma), A2780 (ovarian carcinoma), H460 (lung carcinoma), A431 (skin carcinoma), MiaPaCa-2 (pancreatic carcinoma), and SMA560 (spontaneous murine astrocytoma), together with MCF10A (non-tumour derived normal breast cell line). Cell line sources: the HT29, H460, and MiaPaCa-2, together with MCF10A were purchased from ATCC. The A2780 and A431 were purchased from the European Collection of Cell Culture (ECACC). All cell lines were incubated in a humidified atmosphere 5% CO2 at 37 °C. The cancer cell lines were maintained in Dulbecco’s modified Eagle’s medium (DMEM; Sigma, Truganina, Australia) supplemented with foetal bovine serum (10%), sodium pyruvate ([…]), penicillin (100 IUmL^−1), streptomycin (100 µg mL^−1), and L-glutamine ([…]).
(§5) Growth inhibition was determined by plating cells in duplicate in medium (100 µL) at a density of 2500–4000 cells per well in 96-well plates. On day 0 (24 h after plating), when the cells are in logarithmic growth, medium (100 µL) with or without the test agent was added to each well. […] Each data point is the mean ± the standard error of the mean (SEM) calculated from three replicates which were performed on separate occasions and separate cell line passages.

[9] = test system: A431 (skin carcinoma); experiment: Cancer screening, MTT growth inhibition; type: cell-based; conditions: for inhibition at 25 µM / GI50: Homo sapiens; for inhibition at 25 µM: A-431, 25 µM of drug, read-out: DOSE SCREEN percentage (%) cell growth inhibition A431 Skin; for GI50: A-431, 72 h, read-out: DOSE RESPONSE GI50 A431 Skin
Procedure: as §4, §5

[10] = test system: H460 (lung carcinoma); experiment: Cancer screening, MTT growth inhibition; type: cell-based; conditions: for inhibition at 25 µM / GI50: Homo sapiens; for inhibition at 25 µM: NCI-H460, 25 µM of drug, read-out: DOSE SCREEN percentage (%) cell growth inhibition H460 Lung; for GI50: NCI-H460, 72 h, read-out: DOSE RESPONSE GI50 H460 Lung
Procedure: as §4, §5

[11] = test system: HT29 (colorectal carcinoma); experiment: Cancer screening, MTT growth inhibition; type: cell-based; conditions: for inhibition at 25 µM / GI50: Homo sapiens; for inhibition at 25 µM: HT-29, 25 µM of drug, read-out: DOSE SCREEN percentage (%) cell growth inhibition HT29 Colon; for GI50: HT-29, 72 h, read-out: DOSE RESPONSE GI50 HT29 Colon
Procedure: as §4, §5

[12] = test system: MIA-Pa-Ca2 (pancreatic carcinoma); experiment: Cancer screening, MTT growth inhibition; type: cell-based; conditions: for inhibition at 25 µM / GI50: Homo sapiens; for inhibition at 25 µM: MIA PaCa-2, 25 µM of drug, read-out: DOSE SCREEN percentage (%) cell growth inhibition MIA-Pa-Ca2 Pancreatic; for GI50: MIA PaCa-2, 72 h, read-out: DOSE RESPONSE GI50 MIA-Pa-Ca2 Pancreatic
Procedure: as §4, §5

[13] = test system: MCF10A (non-tumour derived normal breast cell line); experiment: Cancer screening, MTT growth inhibition; type: cell-based; conditions: 72 h; for inhibition at 25 µM / GI50: Homo sapiens, MCF-10A; for inhibition at 25 µM: read-out: DOSE SCREEN percentage (%) cell growth inhibition MCF10A Breast (normal); for GI50: read-out: DOSE RESPONSE GI50 MCF10A Breast (normal)

T2 sequence (P53341 whole entry): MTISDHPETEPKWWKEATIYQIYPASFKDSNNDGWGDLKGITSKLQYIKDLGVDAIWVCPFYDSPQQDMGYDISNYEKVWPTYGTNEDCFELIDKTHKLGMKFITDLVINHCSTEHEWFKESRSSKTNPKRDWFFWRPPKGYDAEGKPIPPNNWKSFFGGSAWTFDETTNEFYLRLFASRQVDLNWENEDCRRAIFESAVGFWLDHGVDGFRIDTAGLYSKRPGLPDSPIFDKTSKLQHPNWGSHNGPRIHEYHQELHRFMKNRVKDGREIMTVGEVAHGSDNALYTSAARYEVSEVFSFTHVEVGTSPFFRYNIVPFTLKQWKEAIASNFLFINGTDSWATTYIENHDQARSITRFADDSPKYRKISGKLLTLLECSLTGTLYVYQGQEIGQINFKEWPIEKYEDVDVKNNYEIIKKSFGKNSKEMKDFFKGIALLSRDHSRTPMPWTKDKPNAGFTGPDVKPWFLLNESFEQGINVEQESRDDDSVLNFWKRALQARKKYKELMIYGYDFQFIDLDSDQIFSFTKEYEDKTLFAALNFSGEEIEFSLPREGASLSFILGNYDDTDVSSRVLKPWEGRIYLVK

Compound	inhibition % α-D-Galactosidase Coffee Beans ([1]; at 100 μM)	inhibition % α-D-Galactosidase Coffee Beans ([1]; at 1000 μM)	inhibition % β-D-Glucuronidase Bovine Liver ([2]; at 100 μM)	inhibition % β-D-Glucuronidase Bovine Liver ([2]; at 1000 μM)	inhibition % β-D-Mannosidase Snail ([3]; at 100 μM)	inhibition % β-D-Mannosidase Snail ([3]; at 1000 μM)	inhibition at 1000 µg/mL (stock) [4]	Percentage inhibition β-D-Glucosidase Almond [5]	Percentage inhibition β-D-Glucuronidase Bovine Liver [6]	Sample Appearance [7]	inhibition at 25 µM ([8]; 72 h)	GI50 [8]	inhibition at 25 µM ([9]; 72 h)	GI50 [9]	inhibition at 25 µM ([10]; 72 h)	GI50 [10]	inhibition at 25 µM ([11]; 72 h)	GI50 [11]	inhibition at 25 µM ([12]; 72 h)	GI50 [12]	also measured
OB(O)c1ccccc1CN1C[C@@H](O)[C@H]2OC(O)[C@H](O)[C@H]21 (stereo partly drawn) [ortho 3, N-(2-Methylphenylboronic acid)-3,6-dideoxy-3,6-imino-D-gulofuranose]	^cNI ^d(0%)	^aNI ^b(0%)	^cNI ^d(2.9%)	^aNI ^b(6.6%)	^cNI ^d(0%)	^aNI ^b(0%)	4.1%	68.6%	1.3%	In solution	17 ± 2%	> 50 µM	3 ± 1%	> 50 µM	2 ± 1%	> 50 µM	< 0%	> 50 µM	5 ± 5%	> 50 µM	inhibition at 25 µM ([13]; 25 µM of drug): 9 ± 7%; GI50 [13]: > 50 µM
OC[C@H](O)[C@@H]1[C@H](O)[C@H](O)CN1Cc1ccccc1B(O)O [ortho 4, N-(2-Methylphenylboronic acid)-1,4-dideoxy-1,4-imino-L-gulitol]	^cNI ^d(0%)	^aNI ^b(2.7%)	^cNI ^d(0%)	^aNI ^b(0.9%)	^cNI ^d(5.3%)	^aNI ^b(2.3%)	-6.7%	49.8%	2.2%	In solution	16 ± 8%	> 50 µM	17 ± 2%	> 50 µM	8 ± 2%	> 50 µM	< 0%	> 50 µM	7 ± 2%	> 50 µM	inhibition at 25 µM ([13]; 25 µM of drug): 8 ± 4%; GI50 [13]: > 50 µM
CC1(C)O[C@H]2O[C@H]3[C@@H]([C@H]2O1)N(Cc1ccccc1B(O)O)C[C@H]3O [ortho 5]	^cNI ^d(8.5%)	–	^cNI ^d(0%)	–	^cNI ^d(7.0%)	–	8.7%	8.7%	1.4%	In solution	19 ± 2%	> 50 µM	9 ± 4%	> 50 µM	2 ± 2%	> 50 µM	4 ± 4%	> 50 µM	12 ± 3%	> 50 µM	Percentage inhibition α-D-Glucosidase Yeast [4]: 11%; inhibition at 25 µM ([13]; 25 µM of drug): 7 ± 6%; GI50 [13]: > 50 µM
Borocaptate sodium [BSH, reference compound]	–	^aNI ^b(12.3%)	–	^aNI ^b(19.6%)	–	^aNI ^b(19.2%)	–	47.3%	31.6%	In solution	–	–	–	–	–	–	–	–	–	–	Percentage inhibition α-D-Glucosidase Yeast [4]: 59%; DOSE SCREEN percentage (%) cell growth inhibition A2780 Ovarian ([8]; 25 µM of drug, 72 h): * 2 ± 5%; DOSE SCREEN percentage (%) cell growth inhibition A431 Skin ([9]; 25 µM of drug, 72 h): * <0%; DOSE SCREEN percentage (%) cell growth inhibition H460 Lung ([10]; 25 µM of drug, 72 h): * 8 ± 2%; DOSE SCREEN percentage (%) cell growth inhibition HT29 Colon ([11]; 25 µM of drug, 72 h): * 3 ± 2%; DOSE SCREEN percentage (%) cell growth inhibition MIA-Pa-Ca2 Pancreatic ([12]; 25 µM of drug, 72 h): * 2 ± 6%; DOSE SCREEN percentage (%) cell growth inhibition MCF10A Breast (normal) ([13]; 25 µM of drug): * 8 ± 3%
